{"source": "patent EP3156398A1", "about": "“AGONISTS OF THE CHEMOKINE RECEPTOR CXCR3” (Friedrich-Alexander-Universität Erlangen-Nürnberg, priority 2015, dated 2017)", "key": {"CXCR3-PK2": {"molecular_target": "T1, CXCR3-PK2 (Homo sapiens, UniProt P49682)", "T1 construct": "expressed in transfected cells", "T1 sequence (P49682 1-368)": "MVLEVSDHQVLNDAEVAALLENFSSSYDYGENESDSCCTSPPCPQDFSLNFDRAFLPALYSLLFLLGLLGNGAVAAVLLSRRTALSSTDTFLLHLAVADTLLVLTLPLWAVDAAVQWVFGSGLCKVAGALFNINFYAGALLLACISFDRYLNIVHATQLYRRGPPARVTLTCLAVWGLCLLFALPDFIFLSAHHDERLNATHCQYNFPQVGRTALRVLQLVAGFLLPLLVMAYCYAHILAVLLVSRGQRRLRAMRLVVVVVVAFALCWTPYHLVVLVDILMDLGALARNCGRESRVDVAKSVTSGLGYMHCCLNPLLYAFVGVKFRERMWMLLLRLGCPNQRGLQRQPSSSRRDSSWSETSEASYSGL", "assay": "β-arrestin 2 recruitment assay (PathHunter, DiscoveRx), CXCR3-PK2 construct", "assay_type": "cell-based", "conditions": "CXCR3-PK2; for CXCR3-PK2 pEC50 ± SEM: HEK293-T cells, PathHunter", "procedure": "(§1) β-arrestin 2 recruitment assay: The measurement of β-arrestin recruitment was performed utilizing the PathHunter assay purchased from DiscoveRx (DiscoveRx, Birmingham, U.K.) according to the manufacturer's protocol. HEK293 cells stably expressing β-gal enzyme acceptor were transiently transfected with the ProLink (PK1) tagged wildtype CXCR3 receptor using the TransIT-293 transfection reagent from Mirus (purchased from MoBiTec, Goettingen, Germany). The assay was carried out in 384-well plates containing 2000 cells in 20 µL. After incubation at 37°C (5% CO2, 95% relative humidity) overnight, various concentrations of test compounds or CXCL11 (prepared in PBS, pH 7.4, containing 0.20% BSA) were added and the incubation continued for 4 h. Detection mix was then added and incubated for further 60 min at room temperature. Chemiluminescence was determined with a microplate reader Clariostar (BMG labtech, Ortenberg, Germany).\nThe ability of the novel ligands according to the present invention to induce CXCR3-mediated β-arrestin 2 recruitment was investigated in the assay system PathHunter (DiscoveRx), which detects the recruitment of β-amestin 2 to the activated receptor using β-galactosidase (β-gal) enzyme fragment complementation. The inventors used two different ProLink tags, ProLink1 (PK1) and ProLink2 (PK2), of which PK2 has higher affinity for the enzyme acceptor to detect weak protein-protein interactions. The CXCR3-PK2 construct is readily able to detect the differences in the propensity of CXCL11 and CXCL10 to induce β-arrestin 2 recruitment at CXCR3. […] Table 3. Ability of the 46/VUF10661 based positive allosteric modulators to activate the CXCR3 as measured in the β-arrestin 2 recruitment assay (PathHunter, DiscoveRx).[a]\nTo investigate the efficacy of identified partial agonists in the assay format, the inventors used the CXCR3-PK2 construct, which is characterized by higher sensitivity to detect β-arrestin 2 recruitment. The compounds which appeared as weak partial agonists under CXCR3-PK1 conditions appeared as strong partial agonists under CXCR3-PK2 conditions with the efficacy increased up to 80% (Table 4). FAUC1036 reached the efficacy of 66%. […] Table 4. Ability of the compound 5 based positive allosteric modulators to activate the CXCR3 as measured in the β-arrestin 2 recruitment assay (PathHunter, DiscoveRx).[a]"}, "human CXCR3 (isoform 1)": {"molecular_target": "T2, human CXCR3 (isoform 1) (Homo sapiens, UniProt P49682)", "T2 construct": "expressed in transfected cells; host or cells: COS-7 cells, transient (pcDNA3.1+ vector, calcium phosphate)", "T2 sequence (P49682 1-368)": "T1 sequence (P49682 1-368)", "assay": "[125I]CXCL11 radioligand displacement assay", "assay_type": "binding", "procedure": "[^125I]CXCL11 radioligand displacement assay: Oxidative iodination. The CXCL11 protein (purchased from PeproTech as the mature form of isoform 1) was labeled in-house with the ^125I isotope (purchased from Perkin-Elmer, in 10 µM NaOH, pH 8-11) using the Chloramine-T method^36. CXCL11 was dissolved in 300 mM phosphate buffer, and 0.4 mCi ^125I was added to 0.6 nmol (10 µl) of the protein. 30 µl phosphate buffer supplemented with 30 mgl^-1 Chloramine-T was added slowly over a 5 min period while stirring, and the reaction was quenched by adding 400 µl H2O with 0.1% trifluoroacetic acid (TFA). The product was purified by reverse-phase HPLC, using a C18 column and a gradient from H2O with 0.1% TFA (buffer A) to acetonitrile with 0.1% TFA (buffer B). After allowing the passage of 8 mL flow-through at 20 % buffer B, CXCL11 is eluted by increasing buffer B to 50 % over a flow-volume of 40 mL, after which any possible remains of protein are eluted by further increasing buffer B to 80 % across 10 mL flow-through. The flow-through is collected in 1 mL aliquots, and the radioligand is identified in those aliquots by gamma radiation intensity, and verified with a preliminary competitive binding assay setup.\nCell culture and transfection,. Cos-7 cells expressing human CXCR3 (isoform 1) were used for binding assays. […]"}, "CXCR3": {"molecular_target": "T3, CXCR3 (Homo sapiens, UniProt P49682)", "T3 construct": "expressed in transfected cells; host or cells: HEK293 / HEK293T cells, stably transfected; membrane preparations", "T3 sequence (P49682 1-368)": "T1 sequence (P49682 1-368)", "assay": "β-arrestin 2 recruitment with concomitant incubation of FAUC1036 and chemokine", "assay_type": "cell-based", "procedure": "as §1\nThe effect of the β-arrestin 2 biased allosteric agonist FAUC1036 on the CXCL11 and CXCL10-induced β-arrestin 2 recruitment was estimated in a series of experiments where the HEK293T cells expressing CXCR3 were concomitantly incubated with FAUC1036 and chemokines CXCL11 or CXCL10 (Figure 3). […] These observations imply that FAUC1036 behaves as a functional negative allosteric modulator (NAM) in the presence of endogenous agonists in the β-arrestin 2 pathway."}}, "data": [{"smiles": "CC(C)(C)OC(=O)N[C@@H](CCCCNC(=O)[C@@H]1Cc2ccccc2CN1C(=O)CCC(=O)c1ccccc1)C(=O)NCC(c1ccccc1)c1ccccc1", "note": "[Compound 11, Tert-butyl ((S)-1-((2,2-diphenylethyl)amino)-1-oxo-6-((S)-2-(4-oxo-4-phenylbutanoyl)-1,2,3,4-tertahydroisoquinoline-3-carboxamido)hexan-2-yl)carbamate]", "values": [{"measurement": "CXCR3-PK2 efficacy (%)", "setting": "CXCR3-PK2; % of CXCL11 mediated effect, listed as 11/FAUC103 6", "value": "66±8", "unit": "%"}, {"measurement": "Emax", "setting": "CXCR3-PK2; % of CXCL11 mediated effect, read-out: CXCR3-PK2 efficacy (%) (converted)", "value": 66, "unit": "%"}, {"measurement": "CXCR3-PK2 pEC50 ± SEM", "setting": "CXCR3-PK2; listed as 11/FAUC103 6", "value": "6.58±0.30"}, {"measurement": "CXCR3-PK2 pEC50 ± SEM", "setting": "CXCR3-PK2; listed as FAUC1036", "value": "6.64 ± 0.30"}, {"measurement": "effect on the binding affinity of CXCL11 on CXCR3", "setting": "human CXCR3 (isoform 1)", "value": "no effect on the binding affinity of CXCL11 on CXCR3"}, {"measurement": "influence on the efficacy of CXCL10-induced β-arrestin 2 recruitment", "setting": "CXCR3; in the presence of CXCL10 (Figure 3B)", "value": "noticeable effect on the efficacy"}, {"measurement": "influence on the efficacy of CXCL11-induced β-arrestin 2 recruitment", "setting": "CXCR3; in the presence of CXCL11 (Figure 3A)", "value": "had not influence on the efficacy"}]}]}
